The values that follow come from ChEMBL document CHEMBL1201862, “PubChem BioAssay data set” (2004).

Molecules are shown by their SMILES.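 48-hour exposure; five concentrations; linearly interpolated endpoints. GI50 marks 50% less growth.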 Active and inactive are the calls of the source. Rule as the data show it: active = GI50 up to about 1.1 µM and inactive = higher.

Test in all cases: NCI tumour cell line growth inhibition, 48 h
Assay [1] relates to OVCAR-8.
Assay [2] has as its system LOX IMVI.
Assay [3] deals with HCT-116.
The test system of assay [4] is NCI/ADR-RES.
In assay [5] the test system is NCI-H226.
The subject of assay [6] is SK-MEL-5.
In assay [7] the test system is NCI-H522.
The test system of assay [8] is RXF 393.
Assay [9] has as its system RPMI-8226.
For assay [10], the system named is SK-MEL-2.
Assay [11] concerns IGROV-1.
Assay [12] deals with A498.
In assay [13] the test system is SW-620.
The subject of assay [14] is HOP-92.
In assay [15] the test system is SNB-19.
Assay [16] relates to K562.
Assay [17] relates to Malme-3M.
Assay [18] concerns SK-MEL-28.
In assay [19] the test system is MOLT-4.
Assay [20] relates to UACC-257.

As to `O=C(O)c1cn2c3c(cc(N4CCN(CCO)CC4)cc3c1=O)SCC2`, the GI50 in assay [1] was 62.8 µM (inactive); in assay [2], 71.1 µM (inactive); in assay [3] it was > 100 µM (inactive); in assay [4], > 89.7 µM (inactive); in assay [5] it was 63.8 µM (inactive); in assay [6], > 100 µM (inactive). For the same compound, the GI50 in assay [7] is 26.5 µM (inactive); in [8], > 100 µM (inactive); in [9], > 100 µM (inactive); in assay [10], 48.4 µM (inactive); in assay [11], > 100 µM (inactive); in assay [12], > 100 µM (inactive). Moreover, the GI50 in assay [13] is > 100 µM (inactive); in [14] it was 59.6 µM (inactive); in assay [15], 96.2 µM (inactive); in assay [16] it was 65.9 µM (inactive); in [17] it was 37.2 µM (inactive); in assay [18] it was > 100 µM (inactive). The GI50 in assay [19] was 53.8 µM (inactive); in [20] it was > 100 µM (inactive).
`CC[C@@]1(O)C[C@H](OC2CC(N(C)C)C(O)C(C)O2)c2c(cc3c(c2O)C(=O)c2c(O)ccc(O)c2C3=O)[C@H]1C(=O)OC` (some centres undefined): the GI50 was 0.0239 µM (active) in assay [1]; 0.0229 µM (active) in assay [2]; 0.0229 µM (active) in assay [3]; 0.0526 µM (active) in assay [4]; 0.108 µM (active) in [5]; 0.0938 µM (active) in [6]. Further, the GI50 in assay [7] was 0.0521 µM (active); in assay [8] it was 0.0366 µM (active); in assay [9], 0.0364 µM (active); in [10] it was 0.101 µM (active); in assay [11], 0.0468 µM (active); in [12] it was 0.0448 µM (active). For the same compound, the GI50 in [13] was 0.0267 µM (active); in assay [14], 0.256 µM (active); in assay [15], 0.0991 µM (active); in [16] it was 0.0292 µM (active); in assay [17] it was 0.0807 µM (active); in assay [18], 0.148 µM (active). For the same compound, the GI50 in assay [19] was 0.0252 µM (active); in assay [20] it was 0.0863 µM (active).
Take `CCOP(=O)(COCCn1nc(Br)c(=O)[nH]c1=O)OCC`: the GI50 in assay [1], in assay [2], in [4], in assay [5], in assay [6] and in assay [7] was > 100 µM (inactive) each time. Further, the GI50 in assay [8], in assay [9], in assay [10], in assay [11], in [12] and in assay [13] was > 100 µM (inactive) throughout. Besides, the GI50 in assay [14], in [15], in assay [16], in assay [17], in assay [18] and in assay [19] was > 100 µM (inactive) in each case. For the same compound, the GI50 in assay [20] is > 100 µM (inactive).
`CCCCCCCCCCCCCCCCNCC(O)CN` (centres undefined): the GI50 in assay [1] is 3.53 µM (inactive); in assay [2], 1.75 µM (inactive); in assay [3], 1.87 µM (inactive); in assay [4], 2.22 µM (inactive); in assay [5] it was 8.89 µM (inactive); in assay [6], 11.7 µM (inactive). The GI50 in [7] is 14.5 µM (inactive); in assay [8], 2.82 µM (inactive); in [9], 2 µM (inactive); in assay [10] it was 18.6 µM (inactive); in [11], 5.19 µM (inactive); in assay [12] it was 18 µM (inactive). Moreover, the GI50 in assay [13] is 1.79 µM (inactive); in assay [14], 2.65 µM (inactive); in [15], 19.5 µM (inactive); in [16] it was 1.75 µM (inactive); in [17] it was 16.2 µM (inactive); in [18] it was 13.1 µM (inactive). In addition, the GI50 in [19] is 2.07 µM (inactive); in assay [20] it was 9.89 µM (inactive).
Take `COC(=O)C1C(O)C(C)C(O)OC1C(C)C(O)C(C)/C=C\C=C(/C)C(=O)Nc1c(C)c(OC(C)=O)c2c(c1O)C(=O)C(C)=C1OCOC(/C(C)=C/C(C)=O)=C12` (centres undefined): the GI50 in assay [1] is 13.7 µM (inactive); in assay [2] it was 13.7 µM (inactive); in assay [3], 9.53 µM (inactive); in assay [4], 15.1 µM (inactive); in [5] it was 12.4 µM (inactive); in assay [6], 12.8 µM (inactive). In addition, the GI50 was 2.25 µM (inactive) in assay [7]; 13 µM (inactive) in assay [8]; 9.48 µM (inactive) in [9]; 12.6 µM (inactive) in [10]; 12.6 µM (inactive) in assay [11]; 15.2 µM (inactive) in [12]. In addition, the GI50 was 9.53 µM (inactive) in [13]; 12.8 µM (inactive) in assay [14]; 15.1 µM (inactive) in assay [15]; 16.5 µM (inactive) in [16]; 13.5 µM (inactive) in assay [17]; 2.99 µM (inactive) in [18]. For the same compound, the GI50 in assay [19] was 10.7 µM (inactive); in assay [20], 12.5 µM (inactive).
Turning to `O=S(=O)(O)c1ccc(/N=N\c2ccc(/N=N\c3ccc(/C=C/c4ccc(/N=[N+](/[O-])c5ccc(/C=C/c6ccc(/N=N/c7ccc(/N=N\c8ccc(S(=O)(=O)O)cc8)cc7)cc6S(=O)(=O)O)c(S(=O)(=O)O)c5)cc4S(=O)(=O)O)c(S(=O)(=O)O)c3)cc2)cc1`, the GI50 is > 100 µM (inactive) in assay [1]; > 100 µM (inactive) in assay [2]; > 100 µM (inactive) in assay [3]; > 100 µM (inactive) in assay [4]; > 67.8 µM (inactive) in [5]; > 100 µM (inactive) in [6]. The GI50 was 86.3 µM (inactive) in assay [7]; > 100 µM (inactive) in assay [8]; > 100 µM (inactive) in assay [9]; > 100 µM (inactive) in assay [10]; > 100 µM (inactive) in assay [11]; > 100 µM (inactive) in [12]. For the same compound, the GI50 in assay [13], in assay [14], in [15], in assay [16], in assay [17] and in [18] was > 100 µM (inactive) each time. For the same compound, the GI50 in assay [19] and in [20] was > 100 µM (inactive) each time.
Consider `O=Cc1c(Cn2ccnc2)c2cc([N+](=O)[O-])ccc2n1Cc1ccccc1`, for which the GI50 was > 81.3 µM (inactive) in assay [1]; > 100 µM (inactive) in assay [2]; 52 µM (inactive) in [3]; > 61.8 µM (inactive) in [4]; > 100 µM (inactive) in assay [5]; 99.1 µM (inactive) in [6]. Also, the GI50 is > 100 µM (inactive) in [7]; > 100 µM (inactive) in assay [8]; > 100 µM (inactive) in assay [9]; > 100 µM (inactive) in assay [10]; > 83 µM (inactive) in [11]; > 93.3 µM (inactive) in assay [12]. Besides, the GI50 in assay [13] was > 100 µM (inactive); in assay [14] it was > 100 µM (inactive); in [15], 49.3 µM (inactive); in [16], 97.1 µM (inactive); in assay [17], > 100 µM (inactive); in assay [18], > 100 µM (inactive). Moreover, the GI50 in assay [19] and in assay [20] was > 100 µM (inactive) throughout.
On to `CC[C@@]1(O)C(=O)OCc2c1cc1n(c2=O)Cc2cc3c(N)cccc3nc2-1` [9-AMINOCAMPTOTHECIN], for which the GI50 is 0.0148 µM (active) in assay [1]; < 0.01 µM (active) in assay [2]; 0.0272 µM (active) in [3]; 0.0128 µM (active) in [4]; 0.0102 µM (active) in [5]; 0.0118 µM (active) in assay [6]. Also, the GI50 in assay [7] is 0.0181 µM (active); in [8] it was 0.0408 µM (active); in assay [9], 0.0764 µM (active); in [10], 0.233 µM (active); in [11] it was 0.246 µM (active); in assay [12], 0.0794 µM (active). The GI50 is 0.0321 µM (active) in [13]; 0.0356 µM (active) in assay [14]; < 0.01 µM (active) in assay [15]; 0.112 µM (active) in assay [16]; 0.0785 µM (active) in [17]; 0.177 µM (active) in assay [18]. In addition, the GI50 was < 0.01 µM (active) in assay [19] and 0.0571 µM (active) in assay [20].
